A value given as a limit tells only on which side of the number the result lay.

The assay deals with memapsin 2 (Homo sapiens, UniProt P56817). Put plainly: Inhibition of memapsin 2 beta-secretase activity (fluorogenic substrate FS-2). In kind it is biochemical. Conditions: memapsin 2, pH 4, 37° C., 20 minutes pre-incubation; read-out: M2Ki. As to the method: Potency of compounds were determined by measurement of their inhibition of memapsin 2 activity toward a fluorescent substrate. Kinetic inhibition experiments were performed using the procedure as described in Ermolieff, et al. (Biochemistry 39:12450-12456 (2000), the teachings of which are incorporated hereby in their entirety). Briefly, assays were performed at pH 4, 37° C., by pre-incubation of memapsin 2 enzyme with compound for 20 minutes. Activity measurements were initiated by addition of a fluorogenic substrate FS-2 (Bachem Americas, Torrance, Calif.) MCA-SEVNLDAEFR-DNP (SEQ ID NO.: 2). The substrate was derived from 10 amino acids of the human amyloid precursor protein (APP), with the Swedish variant amino acids at the beta-secretase cleavage site. The terminal amino acid was modified from arginine to lysine to facilitate derivatization with a functional group for detection by autofluorescence. The amino acid sequence of the “core” peptide of the substrate is SEVNLDAEFK (SEQ ID NO.: 3). The amino terminus was derivatized with (7-methoxycoumarin-4-yl)acetyl (MCA), and the epsilon amine of the lysine side chain of the terminal residue (K in sequence SEVNLDAEFK (SEQ ID NO.: 3)) was derivatized with 2,4-dinitorphenyl (DNP).
Chain of memapsin 2 (P56817 46-501): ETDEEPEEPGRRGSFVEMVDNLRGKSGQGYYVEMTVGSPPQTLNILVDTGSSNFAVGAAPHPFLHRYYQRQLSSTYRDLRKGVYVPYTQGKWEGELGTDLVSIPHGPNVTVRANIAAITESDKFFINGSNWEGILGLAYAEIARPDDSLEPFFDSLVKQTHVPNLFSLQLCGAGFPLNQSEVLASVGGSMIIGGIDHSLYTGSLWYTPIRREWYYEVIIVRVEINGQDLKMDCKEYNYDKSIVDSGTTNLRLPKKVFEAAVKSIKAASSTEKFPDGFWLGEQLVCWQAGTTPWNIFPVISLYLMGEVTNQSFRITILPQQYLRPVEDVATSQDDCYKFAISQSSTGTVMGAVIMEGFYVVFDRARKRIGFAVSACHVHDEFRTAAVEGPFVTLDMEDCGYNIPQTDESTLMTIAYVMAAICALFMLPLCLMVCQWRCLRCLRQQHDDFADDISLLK
Fluorescent signal increase over time was measured as a rate of hydrolysis of the peptide substrate. Inhibition of hydrolytic rate was expressed relative to uninhibited controls and fit to a model for tight-binding inhibitors (J. Bieth, in “Proteinase Inhibitors,” Bayer Symposium V, 463-469, 1974, which is herein incorporated by reference for all purposes in its entirety).
As for `Cc1csc(CN(C)C(=O)c2cccc(C(=O)N[C@@H](Cc3ccccc3)[C@H](O)CNCc3ccc(C(F)(F)F)nc3)c2)n1` [Compound 7, N1-((2S,3R)-3-hydroxy-1-phenyl-4-((6-(trifluoromethyl)pyridin-3-yl)methylamino)butan-2-yl)-N3-methyl-N3-((4-methylthiazol-2-yl)methyl)isophthalamide], the Ki is greater than 501 nM. Then `Cc1csc(CN(C)C(=O)c2cccc(C(=O)N[C@@H](Cc3ccccc3)[C@H](O)CNCc3ccc(C)c(C)c3)c2)n1` [Compound 13, N1-((2S,3R)-4-(3,4-dimethylbenzylamino)-3-hydroxy-1-phenylbutan-2-yl)-N3-methyl-N3-((4-methylthiazol-2-yl)methyl)isophthalamide], with less than 300 nM; and `COc1cccc(CNC[C@@H](O)[C@H](Cc2ccccc2)NC(=O)c2cccc(C(=O)N(C)Cc3ccco3)c2)c1` [Compound 14, N1-(furan-2-ylmethyl)-N3-((2S,3R)-3-hydroxy-4-(3-methoxybenzylamino)-1-phenylbutan-2-yl)-N1-methylisophthalamide], with greater than 501 nM; and `Cc1csc(CN(C)C(=O)c2cccc(C(=O)N[C@@H](Cc3ccccc3)[C@H](O)CNCc3cccnc3)c2)n1` [Compound 15, N1-((2S,3R)-3-hydroxy-1-phenyl-4-(pyridin-3-ylmethylamino)butan-2-yl)-N3-methyl-N3-((4-methylthiazol-2-yl)methyl)isophthalamide], with greater than 501 nM. Turning to `CCCN(Cc1nc(C)cs1)C(=O)c1cc(OC)cc(C(=O)N[C@@H](Cc2ccccc2)[C@H](O)CNCc2cccc(OC)c2)c1` [Compound 20, N1-((2S,3R)-3-hydroxy-4-(3-methoxybenzylamino)-1-phenylbutan-2-yl)-5-methoxy-N3-((4-methylthiazol-2-yl)methyl)-N3-propylisophthalamide], the Ki is less than 300 nM. For `COc1cccc(CNC[C@@H](O)[C@H](Cc2ccccc2)NC(=O)c2cccc(C(=O)N(C)Cc3nc(C)c(C)s3)c2)c1` [Compound 24, N1-((4,5-dimethylthiazol-2-yl)methyl)-N3-((2S,3R)-3-hydroxy-4-(3-methoxybenzylamino)-1-phenylbutan-2-yl)-N1-methylisophthalamide], the Ki was greater than 501 nM. For `Cc1csc(CN(C)C(=O)c2cccc(C(=O)N[C@@H](Cc3ccccc3)[C@H](O)CNCc3cccc4ccccc34)c2)n1` [Compound 35, N1-((2S,3R)-3-hydroxy-4-(naphthalen-1-ylmethylamino)-1-phenylbutan-2-yl)-N3-methyl-N3-((4-methylthiazol-2-yl)methyl)isophthalamide], the Ki was 301 to 500 nM.

For the molecule `COC(=O)c1ccc(CNC[C@@H](O)[C@H](Cc2ccccc2)NC(=O)c2cccc(C(=O)N(C)Cc3nc(C)cs3)c2)nc1C` [Compound 36, methyl 6-(((2R,3S)-2-hydroxy-3-(3-(methyl((4-methylthiazol-2-yl)methyl)carbamoyl)benzamido)-4-phenylbutylamino)methyl)-2-methylnicotinate], the Ki is greater than 501 nM.

`Cc1csc(CN(C)C(=O)c2cccc(C(=O)N[C@@H](Cc3ccccc3)[C@H](O)CNCc3ccc(CO)c(C)n3)c2)n1` [Compound 37, N1-((2S,3R)-3-hydroxy-4-((5-(hydroxymethyl)-6-methylpyridin-2-yl)methylamino)-1-phenylbutan-2-yl)-N3-methyl-N3-((4-methylthiazol-2-yl)methyl)isophthalamide]: the Ki was greater than 501 nM. `COc1cccc(CNC[C@@H](O)[C@H](Cc2ccccc2)NC(=O)c2cc(O)cc(C(=O)N(C)Cc3nc(C)cs3)c2)c1` [Compound 38, 5-hydroxy-N1-((2S,3R)-3-hydroxy-4-(3-methoxybenzylamino)-1-phenylbutan-2-yl)-N3-methyl-N3-((4-methylthiazol-2-yl)methyl)isophthalamide]: the Ki was less than 300 nM.

For the molecule `Cc1csc(CN(C)C(=O)c2cccc(C(=O)N[C@@H](Cc3ccccc3)[C@H](O)CNCc3cccc4cc[nH]c34)c2)n1` [Compound 39, N1-((2S,3R)-4-((1H-indol-7-yl)methylamino)-3-hydroxy-1-phenylbutan-2-yl)-N3-methyl-N3-((4-methylthiazol-2-yl)methyl)isophthalamide], the Ki is less than 300 nM. Take `Cc1csc(CN(C)C(=O)c2cccc(C(=O)N[C@@H](Cc3ccccc3)[C@H](O)CNC(C)c3cccnc3)c2)n1` (stereo partly drawn) [Compound 43, N1-((2S,3R)-3-hydroxy-1-phenyl-4-(1-(pyridin-3-yl)ethylamino)butan-2-yl)-N3-methyl-N3-((4-methylthiazol-2-yl)methyl)isophthalamide]: the Ki was greater than 501 nM. In the case of `COc1cccc(CNC[C@@H](O)[C@H](Cc2ccccc2)NC(=O)c2cccc(C(=O)N(C)Cc3ccccn3)c2)c1` [Compound 45, N1-((2S,3R)-3-hydroxy-4-(3-methoxybenzylamino)-1-phenylbutan-2-yl)-N3-methyl-N3-(pyridin-2-ylmethyl)isophthalamide], the Ki is greater than 501 nM. `COc1ccnc(CNC[C@@H](O)[C@H](Cc2ccccc2)NC(=O)c2cccc(C(=O)N(C)Cc3nc(C)cs3)c2)n1` [Compound 48, N1-((2S,3R)-3-hydroxy-4-((4-methoxypyrimidin-2-yl)methylamino)-1-phenylbutan-2-yl)-N3-methyl-N3-((4-methylthiazol-2-yl)methyl)isophthalamide]: the Ki was greater than 501 nM. For the molecule `COc1cccc(CNC[C@@H](O)[C@H](Cc2ccccc2)NC(=O)c2cccc(C(=O)N(C)Cc3cccnc3)c2)c1` [Compound 55, N1-((2S,3R)-3-hydroxy-4-(3-methoxybenzylamino)-1-phenylbutan-2-yl)-N3-methyl-N3-(pyridin-3-ylmethyl)isophthalamide], the Ki is greater than 501 nM.

Take `COc1cccc(CNC[C@@H](O)[C@H](Cc2ccccc2)NC(=O)c2cc(OC)cc(C(=O)N(CCO)Cc3nc(C)cs3)c2)c1` [Compound 57, N1-((2S,3R)-3-hydroxy-4-(3-methoxybenzylamino)-1-phenylbutan-2-yl)-N3-(2-hydroxyethyl)-5-methoxy-N3-((4-methylthiazol-2-yl)methyl)isophthalamide]: the Ki was less than 300 nM. Then `COC(=O)[C@H](CO)NC(=O)c1cc(C(=O)N[C@@H](Cc2ccccc2)[C@H](O)CNCc2cccc(OC)c2)cc(C(=O)N(C)Cc2nc(C)cs2)c1` [Compound 62, (S)-methyl 3-hydroxy-2-(3-((2S,3R)-3-hydroxy-4-(3-methoxybenzylamino)-1-phenylbutan-2-ylcarbamoyl)-5-(methyl((4-methylthiazol-2-yl)methyl)carbamoyl)benzamido)propanoate], with less than 300 nM; and `COC(=O)[C@@H]1COC(c2cc(C(=O)N[C@@H](Cc3ccccc3)[C@H](O)CNCc3cccc(OC)c3)cc(C(=O)N(C)Cc3nc(C)cs3)c2)=N1` [Compound 63, (S)-methyl 2-(3-((2S,3R)-3-hydroxy-4-(3-methoxybenzylamino)-1-phenylbutan-2-ylcarbamoyl)-5-(methyl((4-methylthiazol-2-yl)methyl)carbamoyl)phenyl)-4,5-dihydrooxazole-4-carboxylate], with greater than 501 nM.

Consider `COC(=O)c1coc(-c2cc(C(=O)N[C@@H](Cc3ccccc3)[C@H](O)CNCc3cccc(OC)c3)cc(C(=O)N(C)Cc3nc(C)cs3)c2)n1` [Compound 66, methyl 2-(3-((2S,3R)-3-hydroxy-4-(3-methoxybenzylamino)-1-phenylbutan-2-ylcarbamoyl)-5-(methyl((4-methylthiazol-2-yl)methyl)carbamoyl)phenyl)oxazole-4-carboxylate], for which the Ki was greater than 501 nM. As to `COc1cccc(CNC[C@@H](O)[C@H](Cc2ccccc2)NC(=O)c2cc(OC)cc(C(=O)N[C@H](C)c3ccccc3)c2)c1` [Compound 69, N1-((2S,3R)-3-hydroxy-4-(3-methoxybenzylamino)-1-phenylbutan-2-yl)-5-methoxy-N3-((R)-1-phenylethyl)isophthalamide], the Ki is greater than 501 nM.

Take `CNc1cc(C(=O)N[C@@H](Cc2ccccc2)[C@H](O)CNCc2cccc(OC)c2)cc(C(=O)N(C)Cc2nc(C)cs2)c1` [Compound 76, N1-((2S,3R)-3-hydroxy-4-(3-methoxybenzylamino)-1-phenylbutan-2-yl)-N3-methyl-5-(methylamino)-N3-((4-methylthiazol-2-yl)methyl)isophthalamide]: the Ki was less than 300 nM.

`COc1cccc(CNC[C@@H](O)[C@H](Cc2ccccc2)NC(=O)c2cccc(C(=O)Nc3nc(C)cs3)c2)c1` [Compound 80, N1-((2S,3R)-3-hydroxy-4-(3-methoxybenzylamino)-1-phenylbutan-2-yl)-N3-(4-methylthiazol-2-yl)isophthalamide]: the Ki was greater than 501 nM. With `COc1cccc(CNC[C@@H](O)[C@H](Cc2ccccc2)NC(=O)c2cccc(C(=O)N(C)c3nc(C)cs3)c2)c1` [Compound 84, N1-((2S,3R)-3-hydroxy-4-(3-methoxybenzylamino)-1-phenylbutan-2-yl)-N3-methyl-N3-(4-methylthiazol-2-yl)isophthalamide], the Ki is greater than 501 nM.

For the origin of these results see patent publication US20100286145A1, “ISOPHTHALAMIDE DERIVATIVES INHIBITING BETA-SECRETASE ACTIVITY” (CoMentis, Inc., priority 2007, published 2010).
